The values below come from US8829007B2 (priority 2009, dated 2014).

In assay [1] the test system is influenza A virus (A/PR/8/34). As to the kind of experiment: microbe, parasite or virus in culture. Format: cell-based. Particulars: Influenza A virus, PR/8, MDCK, MDCK cells infected with A/PR/8/34, cell protection (CPE); read-out: IC50 (mean all).
Assay [2] deals with A/PR/8/34 influenza virus. The assay is described as follows: microbe, parasite or virus in culture. Type of assay: cell-based. To be noted: Influenza A virus, PR/8, MDCK, MDCK cells infected with A/PR/8/34, bDNA viral RNA; read-out: EC50 (mean all).

A value given as a limit tells only on which side of the number the result lay.

For `O=C(c1ccc(F)cc1F)N1CCC[C@H](CNc2nc(-c3c[nH]c4ncc(Cl)cc34)ncc2F)C1` [Compound 152, (R)-(3-((2-(5-chloro-1H-pyrrolo[2,3-b]pyridin-3-yl)-5-fluoropyrimidin-4-ylamino)methyl)piperidin-1-yl)(2,4-difluorophenyl)methanone], the IC50 in assay [1] is < 5 µM. For the same compound, the EC50 in assay [2] is < 5 µM.
For `COc1ccc(C(=O)N2CCC[C@H](CNc3nc(-c4c[nH]c5ncc(Cl)cc45)ncc3F)C2)c(OC)c1` [Compound 154, (R)-(3-((2-(5-chloro-1H-pyrrolo[2,3-b]pyridin-3-yl)-5-fluoropyrimidin-4-ylamino)methyl)piperidin-1-yl)(2,4-dimethoxyphenyl)methanone], in assay [1], the IC50 was 5 to 20 µM. Moreover, the EC50 in assay [2] is < 5 µM.
For the compound `Cc1cccc(C(=O)N2CCC[C@H](CNc3nc(-c4c[nH]c5ncc(Cl)cc45)ncc3F)C2)c1C` [Compound 157, (R)-(3-((2-(5-chloro-1H-pyrrolo[2,3-b]pyridin-3-yl)-5-fluoropyrimidin-4-ylamino)methyl)piperidin-1-yl)(2,3-dimethylphenyl)methanone], in assay [1], the IC50 is < 5 µM. In assay [2], the EC50 was < 5 µM.
With `COCCOC(=O)N1CCCC[C@H]1CNc1nc(-c2c[nH]c3ncc(Cl)cc23)ncc1F` [Compound 161, (S)-2-methoxyethyl 2-((2-(5-chloro-1H-pyrrolo[2,3-b]pyridin-3-yl)-5-fluoropyrimidin-4-ylamino)methyl)piperidine-1-carboxylate], the IC50 in assay [1] is > 20 µM. Also, the EC50 in assay [2] is < 5 µM.
Turning to `O=C(OCCCl)N1CCCC[C@H]1CNc1nc(-c2c[nH]c3ncc(Cl)cc23)ncc1F` [Compound 163, (S)-2-chloroethyl 2-((2-(5-chloro-1H-pyrrolo[2,3-b]pyridin-3-yl)-5-fluoropyrimidin-4-ylamino)methyl)piperidine-1-carboxylate], the IC50 in assay [1] lay in the range of 5 to 20 µM. Also, the EC50 in assay [2] was < 5 µM.
As for `C#CCOC(=O)N1CCCC[C@H]1CNc1nc(-c2c[nH]c3ncc(Cl)cc23)ncc1F` [Compound 164, (S)-prop-2-ynyl 2-((2-(5-chloro-1H-pyrrolo[2,3-b]pyridin-3-yl)-5-fluoropyrimidin-4-ylamino)methyl)piperidine-1-carboxylate], in assay [1], the IC50 was > 20 µM. Moreover, in assay [2], the EC50 was < 5 µM.
The corresponding values for `COC(=O)N1CCCC[C@H]1CNc1nc(-c2c[nH]c3ncc(Cl)cc23)ncc1F` [Compound 166, (S)-methyl 2-((2-(5-chloro-1H-pyrrolo[2,3-b]pyridin-3-yl)-5-fluoropyrimidin-4-ylamino)methyl)piperidine-1-carboxylate] are 5 to 20 µM and < 5 µM.
`CCOC(=O)N1CCCC[C@H]1CNc1nc(-c2c[nH]c3ncc(Cl)cc23)ncc1F` [Compound 171, (S)-ethyl 2-((2-(5-chloro-1H-pyrrolo[2,3-b]pyridin-3-yl)-5-fluoropyrimidin-4-ylamino)methyl)piperidine-1-carboxylate]: in assay [1], the IC50 is > 20 µM. For the same compound, the EC50 in assay [2] is 5 to 10 µM.
With `CC(=O)N1CCCC[C@@H]1CNc1nc(-c2c[nH]c3ncc(Cl)cc23)ncc1F` [Compound 179, (R)-1-(2-((2-(5-chloro-1H-pyrrolo[2,3-b]pyridin-3-yl)-5-fluoropyrimidin-4-ylamino)methyl)piperidin-1-yl)ethanone], the IC50 in assay [1] was < 5 µM. In addition, the concentration for a half-maximal effect (EC50) in assay [2] was < 5 µM.
As to `O=C(OCCF)N1CCCC[C@@H]1CNc1nc(-c2c[nH]c3ncc(Cl)cc23)ncc1F` [Compound 180, (R)-2-fluoroethyl 2-((2-(5-chloro-1H-pyrrolo[2,3-b]pyridin-3-yl)-5-fluoropyrimidin-4-ylamino)methyl)piperidine-1-carboxylate], in assay [1], the IC50 was < 5 µM. The EC50 in assay [2] is < 5 µM.
Regarding `O=C(c1nccs1)N1CCCC(CNc2nc(-c3c[nH]c4ncc(Cl)cc34)ncc2F)C1` (stereo not shown) [Compound 186], the IC50 in assay [1] is < 5 µM. For the same compound, the EC50 in assay [2] was < 5 µM.
